Structures can show the parent of a compound that is named as a salt.
These molecules were tested against T1, human D2 receptor (Homo sapiens, UniProt P14416) (assay: D2 receptor radioligand binding assay (membranes of HEK-293 cells expressing human D2 receptor)). Conditions: radioligand displacement, HEK293 membranes, 37° C. for 120 minutes; read-out: Affinity Score (IC50 values for D2 on a scale of 1 through 5).
T1 construct: expressed in transfected cells; cDNA from Origene clones TC308892 and SC123573
T1 sequence (P14416 whole entry): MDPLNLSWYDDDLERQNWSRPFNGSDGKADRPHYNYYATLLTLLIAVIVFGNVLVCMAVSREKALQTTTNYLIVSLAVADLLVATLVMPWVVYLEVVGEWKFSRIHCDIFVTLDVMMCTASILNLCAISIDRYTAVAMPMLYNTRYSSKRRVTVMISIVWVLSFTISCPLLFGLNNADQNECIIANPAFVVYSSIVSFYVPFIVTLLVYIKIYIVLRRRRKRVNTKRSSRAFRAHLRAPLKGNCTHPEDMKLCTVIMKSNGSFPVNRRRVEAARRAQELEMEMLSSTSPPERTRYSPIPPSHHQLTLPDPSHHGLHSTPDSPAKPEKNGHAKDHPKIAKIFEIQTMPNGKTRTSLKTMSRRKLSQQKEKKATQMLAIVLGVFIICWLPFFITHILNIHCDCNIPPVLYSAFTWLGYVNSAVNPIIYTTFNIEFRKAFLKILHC
Procedure: Affinity for the dopamine D2 receptor was tested in vitro, and the following describes the construction of cell lines expressing human D2 receptor, as well as the binding assays themselves.
Establishment of Stable Cell Lines Expressing Either the Cloned Human D2S Receptor or the Cloned Human D2L Receptor.
The human D2 receptor exists in two isoforms: the short form (D2S) and the long form (D2L). The two isoforms are generated from the D2 gene by alternative splicing and the D2L isoform differs from the D2S isoform by the addition of 29 amino acids in the third intracellular loop of its protein structure.
To establish HEK-293 cell lines stably expressing either the human D2S or the human D2L, the human dopamine D2S receptor (Genebank Accession Number NM_016574) and human dopamine D2L receptor (Genebank Accession Number BC021195) were amplified by PCR from Origene cDNA clones TC308892 and SC123573 (respectively) using the following primers: 5-[…]-3 (SEQ ID NO: 1) sense and 5-[…]-3 (SEQ ID NO: 2) antisense. The resulting PCR products were respectively cloned into pENTR-D-TOPO (Invitrogen), sequenced and then transferred into the pCDNA3.2-DEST (Invitrogen) using the LR-clonasc gateway reaction (Invitrogen) and sequenced again to verify the genes sequence.
HEK293 cells were maintained in Eagles Minimum Essential Medium (MEM) supplemented with 0.292 g/L L-glutamine and 10% (v/v) fetal calf serum at 37° C. in a 5% CO2 humidified atmosphere. Cells were grown to 60-80% confluency in 10 cm dishes before transfection. Transfection of the D2S and D2L containing pcDNA3.2-DEST into HEK-293 cells were performed using Lipofectamine 2000 (Invitrogen). Transfected cells were seeded and diluted 2 days after transfection and maintained in culture medium supplemented with 500 μg/mL G418. The HEK-293 cell line expressing the huD2S (R2D2S) and the huD2L (R2D2L) were maintained in culture medium supplemented with 500 μg/mL G418.
D2 Receptor Binding Assays
HEK293 cells were in Eagles Minimum Essential Medium (MEM) supplemented with 10% FBS, 0.292 g/liter L-glutamine, 10^5 units/liter penicillin, 100 mg/liter streptomycin and […] Geneticin at 37° C. in a 5% CO2 humidified atmosphere. Cells were grown to 80-90% confluence and harvested with cell stripper (Cellgro #25-056-CI). Cells were then washed with PBS (2×). Cells were either pelleted and frozen at −80° C. or membranes were prepared immediately.
Cells from pellet were resuspended in homogenization buffer (15 mM Tris*HCl, 2 mM MgCl2*6H2O, 0.3 mM EDTA, 1 mM EGTA pH 7.4 @ 4° C.). Cells were then homogenized using a Polytron (PT 1200) homogenizer at setting 6 for 10 seconds. Crude membranes were pelleted at 39, 412 g for 15 min, at 4° C. (2×) in a Sorval RC6 plus centrifuge. Membranes were finally resuspended in resuspension buffer (50 mM Tris*HCl, 120 mM NaCl, 10 mM MgCl2*6H2O, 1 mM EDTA pH 7.4 @ 4° C.) and sonicated (Fisher Sonic Dismembrator) at setting 5 for 10 seconds.
The radioligand binding assays were conducted in microtiter plates (Costar #3961) with a final volume of 1.0 mL.
The membranes were thawed at room temperature, briefly homogenized using a sonicator, diluted in assay buffer and kept on wet ice until being added to the assay plate. Membranes were diluted to a final target tissue concentration of 10 μg protein per well. The specific binding should be greater than 80% with less than 10% total radioligand bound to minimize ligand depletion errors.
First compound of the invention (50 μL) or assay buffer (50 mM Tris*HCl, 120 mM NaCl, 5 mM MgCl2*6H2O, 1 mM EDTA, 5 mM KCl pH 7.4 @37° C. plus 0.025% BSA), buffer (700 μL) and then membrane (200 μL) were added to the deep well assay plate, which was then shaken for 10 minutes. Finally, radioligand (50 μL) was added.
The assay plates were incubated at 37° C. for 120 minutes.
The assay plate were filtered over 0.3% PEI pretreated glass fiber filtermats (GF/C) using a Packard Filtermate cell harvester. […]
Work on `O=C(O)c1cccc(CN2CN(c3ccc(F)cc3)C3(CCN(CCCN4C(=O)Cc5ccccc54)CC3)C2=O)c1` [Compound 145, 3-((1-(4-Fluorophenyl)-4-oxo-8-(3-(2-oxoindolin-1-yl)propyl)-1,3,8-triazaspiro[4.5]decan-3-yl)methyl)benzoic acid] yielded an IC50 of under 10 nM. `CC1C(=O)N(CCCN2CCC3(CC2)C(=O)N(Cc2cccc(C(=O)O)c2)CN3c2ccccc2)c2ccccc21` (stereo not shown) [Compound 146, 3-((8-(3-(3-methyl-2-oxoindolin-1-yl)propyl)-4-oxo-1-phenyl-1,3,8-triazaspiro[4.5]decan-3-yl)methyl)benzoic acid] gave an IC50 of under 10 nM. `O=C(O)c1ccccc1CN1CN(c2ccccc2)C2(CCN(CCCN3C(=O)Cc4ccccc43)CC2)C1=O` [Compound 148, 2-((4-Oxo-8-(3-(2-oxoindolin-1-yl)propyl)-1-phenyl-1,3,8-triazaspiro[4.5]decan-3-yl)methyl)benzoic acid] was tested, and the IC50 was under 10 nM. For `O=C(O)c1ccccc1CN1CN(c2ccccc2)C2(CCN(CCCN3C(=O)C4(CC4)c4ccccc43)CC2)C1=O` [Compound 149, 2-((4-Cho-8-(3-(2′-oxospiro[cyclopropane-1,3′-indoline]-1′-yl)propyl)-1-phenyl-1,3,8-triazaspiro[4.5]decan-3-yl)methyl)benzoic acid], the IC50 was under 10 nM. Molecule `O=C(O)c1ccccc1CN1CN(c2ccc(F)cc2)C2(CCN(CCCN3C(=O)Cc4ccccc43)CC2)C1=O` [Compound 152, 2-((1-(4-Fluorophenyl)-4-oxo-8-(3-(2-oxoindolin-1-yl)propyl)-1,3,8-triazaspiro[4.5]decan-3-yl)methyl)benzoic acid] has an IC50 of under 10 nM. `O=C(CCCN1CCC2(CC1)C(=O)N(Cc1ccccc1C(=O)O)CN2c1ccccc1)c1ccccc1` [Compound 154, 2-((4-oxo-8-(4-oxo-4-phenylbutyl)-1-phenyl-1,3,8-triazaspiro[4.5]decan-3-yl)methyl)benzoic acid] gave an IC50 of under 10 nM. `O=C(O)c1ccccc1CN1CN(c2ccccc2)C2(CCN(CCCn3c(=O)n(C4CC4)c4ccccc43)CC2)C1=O` [Compound 155, 2-((8-(3-(3-cyclopropyl-2-oxo-2,3-dihydro-1H-benzo[d]imidazol-1-yl)propyl)-4-oxo-1-phenyl-1,3,8-triazaspiro[4.5]decan-3-yl)methyl)benzoic acid] showed an IC50 of under 10 nM. Work on `O=C(O)c1cccc(CN2CN(c3ccc(F)cc3)C3(CCN(CCCn4c(=O)n(C5CC5)c5ccccc54)CC3)C2=O)c1` [Compound 156, 3-((8-(3-(3-cyclopropyl-2-oxo-2,3-dihydro-1H-benzo[d]imidazol-1-yl)propyl)-1-(4-fluorophenyl)-4-oxo-1,3,8-triazaspiro[4.5]decan-3-yl)methyl)benzoic acid] yielded an IC50 of under 10 nM. Molecule `O=C(O)c1ccccc1CN1CN(c2ccc(F)cc2)C2(CCN(CCCn3c(=O)n(C4CC4)c4ccccc43)CC2)C1=O` [Compound 159, 2-((8-(3-(3-cyclopropyl-2-oxo-2,3-dihydro-1H-benzo[d]imidazol-1-yl)propyl)-1-(4-fluorophenyl)-4-oxo-1,3,8-triazaspiro[4.5]decan-3-yl)methyl)benzoic acid] has an IC50 of under 10 nM. `O=C(O)c1cccc(CN2CN(c3ccccc3)C3(CCN(CCCC4C(=O)Nc5ccccc54)CC3)C2=O)c1` (stereo not shown) [Compound 160, 3-((4-oxo-8-(3-(2-oxoindolin-3-yl)propyl)-1-phenyl-1,3,8-triazaspiro[4.5]decan-3-yl)methyl)benzoic acid, hydrochloride] showed an IC50 of under 10 nM. `O=C(O)c1ccccc1CN1CN(c2ccc(F)cc2)C2(CCN(CCCN3C(=O)C4(CC4)c4ccccc43)CC2)C1=O` [Compound 161, 2-((1-(4-Fluorophenyl)-4-oxo-8-(3-(2′-oxospiro[cyclopropane-1,3′-indoline]-1′-yl)propyl)-1,3,8-triazaspiro[4.5]decan-3-yl)methyl)benzoic acid] gave an IC50 of under 10 nM. `CC1(F)C(=O)N(CCCN2CCC3(CC2)C(=O)N(Cc2ccccc2C(=O)O)CN3c2ccccc2)c2ccccc21` (stereo not shown) [Compound 162, 2-((8-(3-(3-Fluoro-3-methyl-2-oxoindolin-1-yl)propyl)-4-oxo-1-phenyl-1,3,8-triazaspiro[4.5]decan-3-yl)methyl)benzoic acid] gave an IC50 of under 10 nM. `CC1(F)C(=O)N(CCCN2CCC3(CC2)C(=O)N(Cc2ccccc2C(=O)O)CN3c2ccc(F)cc2)c2ccccc21` (stereo not shown) [Compound 163] showed an IC50 of under 10 nM. `CC1(F)C(=O)N(CCCN2CCC3(CC2)C(=O)N(Cc2cccc(C(=O)O)c2)CN3c2ccc(F)cc2)c2ccccc21` (stereo not shown) [Compound 164, 3-((8-(3-(3-Fluoro-3-methyl-2-oxoindolin-1-yl)propyl)-1-(4-fluorophenyl)-4-oxo-1,3,8-triazaspiro[4.5]decan-3-yl)methyl)benzoic acid] showed an IC50 of under 10 nM. For `O=C(O)[C@@H](c1ccccc1)N1CN(c2ccccc2)C2(CCN(CCCN3C(=O)Cc4ccccc43)CC2)C1=O` [Compound 166, (R)-2-(4-oxo-8-(3-(2-oxoindolin-1-yl)propyl)-1-phenyl-1,3,8-triazaspiro[4.5]decan-3-yl)-2-phenylacetic acid], the IC50 was under 10 nM. `O=C(CCCN1CCC2(CC1)C(=O)N([C@@H](C(=O)O)c1ccccc1)CN2c1ccccc1)c1ccccc1` [Compound 167, (R)-2-(4-oxo-8-(4-oxo-4-phenylbutyl)-1-phenyl-1,3,8-triazaspiro[4.5]decan-3-yl)-2-phenylacetic acid] showed an IC50 of under 10 nM. `O=C(CCCN1CCC2(CC1)C(=O)N([C@H](C(=O)O)c1ccccc1)CN2c1ccccc1)c1ccccc1` [Compound 168, (S)-2-(4-oxo-8-(4-oxo-4-phenylbutyl)-1-phenyl-1,3,8-triazaspiro[4.5]decan-3-yl)-2-phenylacetic acid] gave an IC50 of under 10 nM. `O=C(O)[C@H](c1ccccc1)N1CN(c2ccccc2)C2(CCN(CCCN3C(=O)Cc4ccccc43)CC2)C1=O` [Compound 170, (S)-2-(4-oxo-8-(3-(2-Oxoindolin-1-yl)propyl)-1-phenyl-1,3,8-triazaspiro[4.5]decan-3-yl)-2-phenylacetic acid] gave an IC50 of under 10 nM. Work on `CC1(C)C(=O)N(CCCN2CCC3(CC2)C(=O)N(Cc2ccc(C(=O)O)cc2)CN3c2ccccc2)c2ccccc21` [Compound 171, 4-((8-(3-(3,3-dimethyl-2-oxoindolin-1-yl)propyl)-4-oxo-1-phenyl-1,3,8-triazaspiro[4.5]decan-3-yl)methyl)benzoic acid, hydrochloride] yielded an IC50 of under 10 nM. Molecule `O=C(O)c1cccc(CN2CN(c3ccccc3)C3(CCN(CCCC(O)c4ccccc4)CC3)C2=O)c1` (stereo not shown) [Compound 173, 3-((8-(4-hydroxy-4-phenylbutyl)-4-oxo-1-phenyl-1,3,8-triazaspiro[4.5]decan-3-yl)methyl)benzoic acid] has an IC50 of under 10 nM. In the case of `O=C(O)c1cccc(CN2CN(C3CCCCC3)C3(CCN(CCCC(=O)c4ccccc4)CC3)C2=O)c1` [Compound 176, 3-((1-cyclohexyl-4-oxo-8-(4-oxo-4-phenylbutyl)-1,3,8-triazaspiro[4.5]decan-3-yl)methyl)benzoic acid, hydrochloride], the IC50 is reported as under 10 nM. Work on `O=C(O)c1cccc(N2CN(c3ccccc3)C3(CCN(CCCC(=O)c4ccccc4)CC3)C2=O)c1` [Compound 177, 3-(4-Cho-8-(4-oxo-4-phenylbutyl)-1-phenyl-1,3,8-triazaspiro[4.5]decan-3-yl)benzoic acid] yielded an IC50 of under 10 nM.

— US9156840B2, “D2 antagonists, methods of synthesis and methods of use” (ALTOS THERAPEUTICS, LLC, priority 2010, dated 2015)
